We go through 3 molecules from patent publication US5681820A, “Guanidinoalkyl glycine β-amino acids useful for inhibiting tumor metastasis” (G. D. Searle & Co., priority 1995, dated 1997).

Molecules are shown by their SMILES. Structures can show the parent of a compound that is named as a salt.

Assay [1] has as its target T1, human vitronectin receptor (αv β3) (Homo sapiens, UniProt P05106+P06756).
T1 construct: Human vitronectin receptor(αv β3) was purified from human placenta; from tissue; host or cells: human placenta
In words: Solid Phase Receptor Assay: purified vitronectin receptor (αv β3), competition with biotinylated vitronectin. The note with it: 1 nM biotinylated vitronectin, read-out: VnR/IC50. In kind it is binding. Here is the method: Human vitronectin receptor(αv β3) was purified from human placenta as previously described [Pytela et al., Methods in Enzymology, 144:475-489 (1987)]. Human vitronectin was purified from fresh frozen plasma as previously described [Yatohgo et al., Cell Structure and Function, 13:281-292 (1988)]. Biotinylated human vitronectin was prepared by coupling NHS-biotin from Pierce Chemical Company (Rockford, Ill.) to purified vitronectin as previously described [Charo et al., J. Biol. Chem., 266(3):1415-1421 (1991)]. Assay buffer, OPD substrate tablets, and RIA grade BSA were obtained from Sigma (St. Louis, Mo.). Anti-biotin antibody was obtained from Calbiochem (La Jolla, Calif.). GRGDSP peptide was purchased from Bachem (Torrance, Calif.). Linbro microtiter plates were obtained from Flow Labs (McLean, Va.). ADP reagent was obtained from Sigma (St. Louis, Mo.).
Solid Phase Receptor Assays
This assay was essentially the same as previously reported [Niiya et al., Blood, 70:475-483 (1987)]. […] The plate was read with a microtiter plate reader at a wavelength of 450 nm and when the maximum-binding control wells reached an absorbance of about 1.0, the final A450 were recorded for analysis. The data were analyzed using a macro written for use with the EXCEL™ spreadsheet program. The mean, standard deviation, and %CV were determined for duplicate concentrations. […]

For assay [2], the system named is M21 human melanoma cells (αv β3-dependent adhesion). In words: M21 Melanoma Cell Adhesion Assay: αv β3-dependent adhesion to human fibrinogen. The format is cell-based. Particulars: 0.5 h, 200 μM Mn++, 30 minutes, 37° C. Here is the method:
M21 Melanoma Cell Adhesion Assasy
This assay involves an αv β3 -dependent adhesion of M21 human melanoma cells to human fibrinogen-coated plastic tissue culture dishes.
Fibrinogen was purified from human plasma. Fibronectin and plasminogen were eliminated from the preparation by passing the sample over gelatin-sepharose 4B and lysine-sepharose 4B resins, respectively. The fibrinogen is diluted to 10 μg/mL in coating buffer (20 mM Tris-HCl, 150 mM NaCl, pH 7.4). 100 μL of diluted fibrinogen is added to each well of a 96-well Immulon 2 microtiter plate (Dynatech; Chantilly, Va.) and allowed to coat overnight at 4° C. […]
M21 human melanoma cells were provided by Dr. J. Smith, La Jolla Cancer Research Institute. […] Cells are counted and suspended to a density of 2×10^6 /mL in adhesion assay buffer containing 200 μM Mn^++. […]
Following adhesion, plates are gently washed 3 times with 200 μL of wash buffer (50 mM Tris-HCl, 150 mM NaCl, pH 7.4) using large bore pipet tips. Plates are briefly blotted dry and 100 μL of cell lysis buffer (50 mM sodium acetate, pH 5.0, 0.5% Triton X-100, 0.3 mg/mL p-nitrophenyl phosphate [Sigma] is added to each well. Plates are incubated for 60 minutes at 37° C. and 50 μL of 1N NaOH is added to stop the reaction. The absorbance of the wells at […] is read using an automatic plate reader.

In another assay the test system is A3827 cells. In words: Cell Adhesion Assay: adhesion of A3827 cells to fibrinogen. The format is cell-based. Particulars: 300 μM MnCl2, 1 hour, 37° C. As to the method:
Fibrinogen was purified from human plasma. Fibronectin and plasminogen were eliminated from the preparation by passing the sample over gelatin-sepharose 4B and lysine-sepharose 4B resins, respectively. The fibrinogen was resuspended at a concentration of 10 μg/mL in 100 mM sodium bicarbonate, pH 9.0. Immulon II (Nunc) microtiter plates were coated by incubating with 100 μL/well of fibrinogen solution overnight at 4° C. After coating with fibrinogen, plates were rinsed three times with phosphate buffered saline (PBS) and 100 μL of a 1% bovine serum albumin (BSA) solution was added to each well and stored at -20° C. until needed. A3827 cells were harvested from subconfluent 75 cm^2 culture flasks with 2 mM EDTA in PBS and resuspended at 5×10^5 cells/mL in Dulbecco's PBS without calcium or magnesium (Sigma #5652) containing 1% BSA. MnCl2 was added to a final concentration of 300 μM. Test compounds were resuspended in PBS and added to the cell suspension before serial dilution. […] Adherent cells were quantitated using a non-radioactive cell proliferation assay (Promega #G5430) using the instructions provided by the supplier. Plates were allowed to equilibrate overnight at room temperature in a humidified chamber and a Biotek EL312 microplate spectrophotometer was used to measure the difference in absorbance at […]. […]

For `CCOC(=O)CC(NC(=O)CNC(=O)CCCNC(=N)N)c1cccnc1` (racemic) [Example 3-ethyl ester, (±) ethyl β-[[2-[[4-[(aminoiminomethyl)amino]-1-oxobutyl]amino]-1-oxoethyl]amino]-3-pyridinepropanoate], the results for the IC50 in assay [1] and in assay [2] were 987 nM and 1410 nM, respectively. Regarding `N=C(N)NCCCCC(=O)NCC(=O)NC(CC(=O)O)c1cccnc1` (stereo not drawn) [Example 1, β-[[2-[[5-[(aminoiminomethyl)amino]-1-oxopentyl]amino]-1-oxoethyl]amino]-3-pyridinepropanoic acid, bistrifluoroacetate salt], the IC50 was found to be 30 nM in the assay with A3827 cells and 40.4 nM in assay [2]. In the case of `N=C(N)NCCCCC(=O)N1CCC[C@H]1C(=O)N[C@@H](CC(=O)O)c1cccnc1` [Example 2, βS-[[[1-[5-[(aminoiminomethyl)amino]-1-oxopentyl]pyrrolidin-2-yl]carbonyl]amino-3-pyridinepropanoic acid, bistrifluoroacetate salt], the IC50 in assay [1] turned out to be 142 nM.
